Broadly, the IC50 is the concentration that gives 50% inhibition.

Where “and” joins values, the source holds several entries; their conditions need not be identical. Identical values can stand only once. Like-named read-outs stand apart in the source and are kept apart here.

Data on 15 molecules can be found in publication PMC8533219, “Evaluation of the Antioxidant, Antidiabetic, and Antiplasmodial Activities of Xanthones Isolated from Garcinia forbesii and Their In Silico Studies” (Biomedicines, 2021).

In assay [1] the target is α-glucosidase. The note with it: cited from earlier work.
For assay [2], the target named is rat intestinal α-glucosidase. Description: Rat intestinal α-glucosidase inhibitory activity. The note with it: IC50 > 1000 μM = inactive. Type of assay: biochemical. As for the experimental part:
The inhibitory activity of rat intestinal α-glucosidase was determined according to previously reported method with slight modifications. This procedure was performed by classifying four mixtures in different groups. The mixture (1) labelled “Blank of enzyme reaction” contained the mixture and DMSO (10 µL), sodium phosphate buffer (50 µL), glucose kit (80 µL), enzyme (20 µL) and substrate (20 µL maltose, sucrose 20 µL). A 10 µL of sample and samples with various concentrations of compounds was added to the well Plates (3) and (4). A 50 µL of sodium phosphate buffer (pH 6.9) was then added to well Plates (1) and (3), and a 30 µL of the buffer was added to well Plates (2) and (4), respectively. The substrate (maltose, 20 µL; sucrose 20 µL) was then added to the Plates (2) and (4). A glucose kit (80 µL each) and the enzyme (20 µL) were added to all plates and were incubated for 10 min for maltose and 40 min for sucrose. Finally, the absorbance was then measured at λ = 520 nm using a microplate reader (BioTek ELx800TM, BioTek Instruments, Inc., Winooski, VT, USA).

A short description of assay [3]: ABTS radical scavenging assay. The note with it: for IC50: IC50 > 1000 μM = inactive. The method, then:
The antioxidant activity was also determined by free radical ABTS (2,2″-azinobis (3-ethyl benzothiazoline-6-sulfonic acid) according to the reported procedure. In this test, 7 mM ABTS solution was prepared and mixed with a buffer solution of potassium peroxydisulfate, incubated for 16 h, and protected from light. A total of 10 μL of the sample and 1 mL of the ABTS was incubated for 4 min and measured at a wavelength of 734 nm. This experiment was performed triplo using quercetin and gallic acid as controls. The ABTS inhibitory activity was calculated by the equation [(Ab-As)/Ab] × 100%.

Assay [4] can be described thus: Ferric reducing-antioxidant power (FRAP) assay. As to conditions: for FRAP: reduction power. The method, then: The FRAP assay was determined according to the described method using 300 mM acetate buffer, 40 mM HCl, 10 mM (2,4,6 Tris(2-pyridyl)-s-triazine (TPTZ)), 20 mM FeCl3·6H2O. For standard curve comparison, a 10:1:1 (acetate buffer: TPTZ: H2O) and sample ratio 10:1:1 (acetate buffer: TPTZ: FeCl3·6H2O) were constructed. The standard curve was prepared using various concentrations of FeSO4·7H2O. The reaction mixture was incubated at 37 °C for 30 min followed by measurement of the absorbance at 593 nm. In this test, the reduction capacity of the tested compound calculated concerning the reaction signal given by the Fe^2+ solution. The FRAP value was expressed as µM Fe^2+/g ((Frap value of sample (µM) = abs (sample) × FRAP value of std (µM)/abs (std).

Assay [5] has as its target T1, Porcine pancreatic α-amylase (Sus scrofa, UniProt P00690).
T1 sequence (P00690 16-511): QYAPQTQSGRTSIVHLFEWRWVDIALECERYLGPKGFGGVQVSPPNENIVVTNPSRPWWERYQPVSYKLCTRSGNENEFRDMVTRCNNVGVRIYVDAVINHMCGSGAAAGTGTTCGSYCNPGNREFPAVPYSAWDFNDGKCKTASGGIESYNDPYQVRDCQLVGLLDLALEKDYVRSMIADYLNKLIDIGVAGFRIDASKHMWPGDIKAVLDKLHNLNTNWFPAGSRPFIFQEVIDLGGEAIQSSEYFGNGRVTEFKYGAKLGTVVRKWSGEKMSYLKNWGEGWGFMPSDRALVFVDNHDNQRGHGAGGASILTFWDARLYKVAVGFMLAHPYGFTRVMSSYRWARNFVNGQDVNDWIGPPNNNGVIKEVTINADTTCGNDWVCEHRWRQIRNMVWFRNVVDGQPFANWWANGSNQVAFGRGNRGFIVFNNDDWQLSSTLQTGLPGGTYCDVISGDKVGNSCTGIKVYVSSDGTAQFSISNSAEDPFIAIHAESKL
Put plainly: α-Amylase inhibitory activity. Type of assay: biochemical. The note with it: read-out: α-Amylase Starch IC50. The method, then: The modified α-amylase enzyme inhibition test was conducted for antidiabetic activity evaluation. A total of 10 mg sample was dissolved in 1 mL DMSO and 0.1 M phosphate buffer and 5 mg α-amylase solution (Porcine pancreatic α-amylase) in 1 mL phosphate buffer pH 6.9 was added. A 100 mg of potato starch (substrate) was heated in 5 mL of 0.1 M phosphate buffer for 5 min and cooled to room temperature. Then, 20 µL of the sample and 50 µL of substrate were mixed into 30 µL of phosphate buffer. The mixture was pre-incubated for 5 min followed by the addition of 20 µL of α-amylase enzyme and then incubation at 37 °C for 15 min. The color development was performed by adding 50 µL of 1M HCl and 50 µL of 10% iodine solution. Finally, the absorbance was measured at a wavelength of 650 nm.

Assay [6] in a line: DPPH radical scavenging assay. As to conditions: for IC50: IC50 > 1000 μM = inactive. As for the experimental part: DPPH (1,1-diphenyl-2-picrylhydrazyl) was used for the antioxidant test using quercetin and gallic acid as controls. The compounds were diluted at concentrations of 159.73, 79.87, 39.93, 19.97, 9.98 µg/mL. A total 1 mL of DPPH 6 × 10^−5 M solution, complete with 33 µL of the compound, was incubated at 37 °C for 20 min. […] The radical inhibitory activity was calculated using the equation [(Ab-As)/Ab] × 100%.
On the technique in general: The DPPH test is a chemical assay of radical scavenging.

Assay [7] relates to P. falciparum strain 3D7. Description: In vitro antiplasmodial assay (pLDH method). Type of assay: cell-based. As to conditions: Plasmodium falciparum; for inhibition at 10 µg/mL: read-out: % Inhibition (10 μg/mL). As for the experimental part: The parasites used in this test were synchronized (Ring stage) with ± 0.3% parasitemia (2% hematocrit). […] The well plates were put in the chamber with mix gas atmosphere (O2 5%, CO2 5% and N2 90%) and incubated for 72 h at 37 °C. After that, the plate was harvested and stored at −30 °C. After 24 h, the pLDH assay was performed by reading the absorbance at 650 nm using a SpectraMax Paradigm® Multi-Mode microplate reader.

Details of assay [8]: method as in PMID 33711431. As to conditions: read-out: DPPH scavenging IC50; cited from earlier work.
Assay [9] deals with Plasmodium falciparum. The note with it: read-out: IC50 against Plasmodium falciparum; cited from earlier work.
The mark [10] stands for this setting: substrate maltose, read-out: α-Glucosidase Maltose IC50.
Where [11] appears, read: substrate sucrose, read-out: α-Glucosidase Sucrose IC50.
[12] abbreviates: P. falciparum 3D7, 10 μg/mL, 72 h.
The mark [13] stands for this setting: P. falciparum 3D7, 72 h, read-out: IC50.

Take subelliptenone F: the IC50 in assay [1] was 4.1 µM.

Regarding `C[C@H]1O[C@H](O[C@H]2[C@H](O)[C@@H](O)[C@@H](O[C@H]3[C@H](O)[C@@H](O)C(O)O[C@@H]3CO)O[C@@H]2CO)[C@H](O)[C@@H](O)[C@@H]1N[C@H]1C=C(CO)[C@@H](O)[C@H](O)[C@H]1O` (stereo partly drawn) [Acarbose, reference compound], the IC50 in assay [2] (setting [10]) turned out to be 3.4 ± 0.27 µM; in assay [2] (setting [11]), 4.6 ± 0.51 µM.

As to `C=CC(C)(C)c1cc(O)c2oc3c4c(ccc3c(=O)c2c1O)C=CC(C)(C)O4` [Compound 4, garciniaxanthone B], the IC50 is 139.4 ± 1.21 µM in [2] (setting [10]); 75.9 ± 2.11 µM in assay [2] (setting [11]); 7.9 ± 0.01 µM in assay [3]; 10.8 ± 0.04 µM in assay [5]; 14.1 ± 0.07 µM in [6]. For the same molecule, the “ABTS % Inhibition (99 μg/mL)” value in assay [3] is on record as 96.15 ± 0.01%. For the same molecule, the FRAP in assay [4] is 192.7 µM Fe^2+/g and 192.7 ± 0.77 µM Fe^2+/g. In assay [6], the “DPPH % Inhibition (159.7 μg/mL)” value is recorded as 95.38 ± 0.08%. Moreover, the inhibition at 10 µg/mL in assay [7] (setting [12]) was under 10%.

For `C=CC(C)(C)c1cc(O)c(O)c2c(=O)c3cc4c(c(O)c3oc12)OC(C)(C)C=C4` [Compound 2, subelliptenone H], the IC50 in [2] (setting [11]) came out at 43.8 ± 1.51 µM; in assay [3], 2.7 ± 0.05 µM; in [5], 41.3 ± 1.24 µM; in [6] it was 19.4 ± 0.15 µM; in assay [7] (setting [13]), 3.3 ± 0.04 µM. The “ABTS % Inhibition (99 μg/mL)” value in assay [3] is given as 97.29 ± 0.04%. Moreover, the FRAP in assay [4] was 166.3 µM Fe^2+/g and 166.3 ± 1.47 µM Fe^2+/g. The “DPPH % Inhibition (159.7 μg/mL)” value in [6] amounted to 95.29 ± 0.05%. In addition, the inhibition at 10 µg/mL in assay [7] (setting [12]) is 86.8 ± 0.33%.

Take `CC(C)=CCC/C(C)=C/Cc1c(O)c(O)cc2oc3cc(O)c(CC=C(C)C)c(O)c3c(=O)c12` [norcowanin]: the IC50 in [1] is 1.7 µM.

garcinoxanthones SV: the IC50 in assay [8] was 68.5 µM.

On to `O=c1c(O)c(-c2ccc(O)c(O)c2)oc2cc(O)cc(O)c12` [Quercetin, reference compound], for which, in assay [3], the “ABTS % Inhibition (99 μg/mL)” value was found to be 97.58 ± 0.01% and the IC50 amounted to 0.17 ± 0.01 µM. Moreover, in [6], the “DPPH % Inhibition (159.7 μg/mL)” value stood at 96.34 ± 0.01% and the IC50 was determined as 4.1 ± 0.01 µM.

For `CC(C)=CCc1c(O)cc2oc3c(CC=C(C)C)c(O)c(O)c(CC=C(C)C)c3c(=O)c2c1O` [garcinone E], the IC50 in assay [8] is 63.1 µM.

Turning to `COc1cc(C)c2c(=O)c3c(O)cc(OC)cc3oc2c1` [Compound 1, lichexanthone], the “α-Glucosidase Maltose IC50” value in [2] (substrate maltose) is “inactive”. Besides, the IC50 in assay [2] (setting [10]), in [2] (setting [11]), in assay [3], in assay [5] and in assay [6] was over 1000 µM in each case. Further, the “α-Glucosidase Sucrose IC50” value in assay [2] (substrate sucrose) is “inactive”. In assay [4], this molecule returned an FRAP of 5.7 ± 0.57 µM Fe^2+/g. Besides, the inhibition at 10 µg/mL in [7] (setting [12]) was under 10%.

As for `CCN(CC)CCCC(C)Nc1ccnc2cc(Cl)ccc12` (stereo not drawn) [Chloroquine, reference compound], the IC50 in assay [9] is 0.3 µM. In addition, in assay [7] (3D7, 72 h), the IC50 was 0.006 ± 0.01 µM and the inhibition at 10 µg/mL is 98.8 ± 0.25%.

Regarding `O=C1O[C@H]([C@@H](O)CO)C(O)=C1O` [Ascorbic acid, reference compound], in assay [8], the IC50 was 48 µM. Also, the FRAP in assay [4] turned out to be 30.6 ± 0.27 µM Fe^2+/g; in assay [4] (listed as ascorbic acid), 30.6 µM Fe^2+/g.

On to `O=C(O)c1cc(O)c(O)c(O)c1` [Gallic acid, reference compound], for which, in [3], the “ABTS % Inhibition (99 μg/mL)” value amounted to 96.30 ± 0.01% and 0.7 ± 0.01 µM corresponded to half-maximal inhibition (IC50). In addition, in [6], the “DPPH % Inhibition (159.7 μg/mL)” value turned out to be 97.21± 0.01% and it took 3 ± 0.01 µM to reach half-maximal inhibition (IC50).

`C=CC(C)(C)c1cc(O)c2oc3c(O)cccc3c(=O)c2c1O` [Compound 3, 12b-hydroxy-des-D-garcigerrin A]: the IC50 is 109 ± 1.31 µM in assay [2] (setting [10]); 79.6 ± 2.01 µM in assay [2] (setting [11]); 0.05 ± 0.01 µM in [3]; 28.7 ± 0.35 µM in assay [5]; 18.9 ± 0.1 µM in assay [6]; 5 ± 0.04 µM in [7] (setting [13]). Moreover, the “ABTS % Inhibition (99 μg/mL)” value in assay [3] is reported as 98.31 ± 0.05%. In assay [3] (relative to quercetin), the “ABTS IC50, fold lower than quercetin” value came to 4 fold. Moreover, in assay [4], the FRAP is 203.9 ± 1.19 µM Fe^2+/g. For the same molecule, the “Iron reducing power, fold greater than ascorbic acid” value in assay [4] (relative to ascorbic acid) was “approximately 6 fold”. In addition, in assay [6], the “DPPH % Inhibition (159.7 μg/mL)” value turned out to be 96.83 ± 0.03%. Also, in [7] (setting [12]), the inhibition at 10 µg/mL was 87.9 ± 0.23%.

Regarding `C=CC(C)(C)c1cc(O)c2oc3c4c(ccc3c(=O)c2c1O)[C@H](O)[C@H](O)C(C)(C)O4` [Compound 5, garcigerin A], the IC50 worked out at 91 ± 1.14 µM in assay [2] (setting [10]); 37.4 ± 1.2 µM in [2] (setting [11]); 6.5 ± 0.02 µM in [3]; 18.7 ± 0.54 µM in assay [5]; 20.4 ± 0.22 µM in assay [6]. For the same molecule, the “ABTS % Inhibition (99 μg/mL)” value in assay [3] is recorded as 97.40 ± 0.03%. The FRAP in assay [4] was 187.8 µM Fe^2+/g and 187.8 ± 1.36 µM Fe^2+/g. Moreover, in assay [6], the “DPPH % Inhibition (159.7 μg/mL)” value is reported as 96.60 ± 0.05%. In assay [7] (setting [12]), the inhibition at 10 µg/mL was under 10%.

As to `O=c1c2cc(O)c(O)cc2oc2cc(O)cc(O)c12` [1,3,6,7-tetrahydroxyxanthone], the IC50 in assay [8] is 28.4 µM.
